We go through 3 compounds from US4788188A, “Quinolylglycinamide derivatives, the process for preparation thereof and their therapeutic application as psychotropic drugs” (Sanofi (S.A.), priority 1985, dated 1988).

The nature of series [1]: Hypnotic activity (method of JANSEN). The class given is in vivo, mice. As to conditions: Mus musculus, ip; 95% confidence interval (FINNEY); read-out: 50% hypnotic dose (confidence interval). As for the experimental part:
The hypnotic activity of the compounds of the present invention was assessed by the method of JANSEN (J. Med. Pharm. Chem., 1959, 1, 281).
After treatment i.p., each mouse is carefully placed on its back. […] In each batch (10 mice per dose), the percentage of sleeping animals is noted. The 50% hypnotic dose and its 95% confidence interval were calculated according to FINNEY's (1971) method.

A short description of series [2]: Acute toxicity in mice (oral). Conditions: mouse, in vivo, oral administration. An excerpt:
The acute, chronic, sub-chronic and delayed toxicities were dealt with in this study. Performed on various animal species, the trials brought out the low toxicity and good tolerability of the derivatives of the invention.

The nature of series [3]: Hypnotic activity (method of JANSEN). Format: in vivo, mice. As to conditions: Mus musculus, iv; 95% confidence interval (FINNEY); read-out: 50% hypnotic dose (confidence interval).
The next series addresses benzodiazepine receptors. The series is described as follows: Affinity for benzodiazepine receptors: inhibition of specific binding of [3H]flunitrazepam (WASTEK et al., modified). Also on record: species or system rats. As to conditions: 50% inhibition of specific binding of [3H]flunitrazepam, rat brain membranes. The method, then: This study was performed according to the technique of WASTEK et al., (Europ. J. Pharmacol., 1978, 50, 445-447) slightly modified.
Rats are sacrificed by decapitation, and the brain is removed, ground, suspended, centrifuged and resuspended.
Samples of this suspension are incubated in the presence of [^3 H]flunitrazepam, alone or in the presence of increasing concentrations of the test compound.
The radioactivity bound on the membranes is then determined by liquid scintillation.
The concentration of product which 50% inhibits the specific binding of [^3 H]flunitrazepam (IC50) is thereby determined.

The conditions of series [4]: comparison, L. PIERI et al., Arzneim. Forsch., 1981; route not given; cited from earlier work.

Like-named read-outs stand apart in the source and are kept apart here.

In general, LD50 refers to the dose at which mortality reaches 50%. One may read the IC50 as the concentration needed to halve the response being measured. Low values mean greater potency, high ones weaker potency. Regarding `CCOC(=O)c1cnc2ccc(OC)cc2c1NCC(=O)N(CC)CC` [Derivative 3, 2-(3-Ethoxycarbonyl-6-methoxy-4-quinolyl)amino-N,N-diethylacetamide], the results for the ED50 in series [1] and in series [3] were 27 mg/kg and 7 mg/kg, respectively. In series [2], this compound registered an LD50 of 1650 mg/kg. The compound further gave an IC50 at benzodiazepine receptors of 55 nM.

Take `Cc1ncc2n1-c1ccc(Cl)cc1C(c1ccccc1F)=NC2` [midazolam]: in series [4], the 50% hypnotic dose is recorded as 23 mg/kg.

Regarding `CCCC(C)C1(CC)C(=O)NC(=S)NC1=O` (stereo not drawn) [thiopental sodium], in series [4], the 50% hypnotic dose is listed as 17 mg/kg.
